Assay results reported in ChEMBL document CHEMBL1201862, “PubChem BioAssay data set” (2004).
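Values below derive from 48-hour exposures of cells grown in 96-well plates, with endpoints linearly interpolated between the two concentrations bracketing the appropriate inhibition level. At the GI50, growth is halved.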 The source made the active and inactive calls. Rule as the data show it: active = GI50 up to about 1.1 µM and inactive = higher.

Assays:
Test in all cases: NCI anticancer screen, dose series, 48 h
[1] = test system: A498
[2] = test system: OVCAR-4
[3] = test system: CCRF-CEM
[4] = test system: SNB-75
[5] = test system: OVCAR-3
[6] = test system: NCI-H226
[7] = test system: SNB-19
[8] = test system: A549
[9] = test system: SF-295
[10] = test system: HCT-15
[11] = test system: Hs-578T
[12] = test system: OVCAR-5
[13] = test system: MOLT-4
[14] = test system: KM12
[15] = test system: SR
[16] = test system: SF-268
[17] = test system: SK-MEL-28
[18] = test system: HCT-116
[19] = test system: SK-MEL-2

| Structure (SMILES) | GI50 [1] | GI50 [2] | GI50 [3] | GI50 [4] | GI50 [5] | GI50 [6] | GI50 [7] | GI50 [8] | GI50 [9] | GI50 [10] | GI50 [11] | GI50 [12] | GI50 [13] | GI50 [14] | GI50 [15] | GI50 [16] | GI50 [17] | GI50 [18] | GI50 [19] |
| --- | --- | --- | --- | --- | --- | --- | --- | --- | --- | --- | --- | --- | --- | --- | --- | --- | --- | --- | --- |
| CC(C)(C)NC(NC(C)(C)C)=C(C(Cl)=C(Cl)Cl)[N+](=O)[O-] | > 100 µM (inactive) | > 100 µM (inactive) | > 100 µM (inactive) | > 100 µM (inactive) | > 100 µM (inactive) | > 100 µM (inactive) | 10.1 µM (inactive) | > 100 µM (inactive) | > 100 µM (inactive) | > 100 µM | 29.4 µM (inactive) | > 100 µM (inactive) | > 100 µM (inactive) | > 100 µM (inactive) | > 100 µM (inactive) | > 100 µM (inactive) | > 100 µM (inactive) | > 100 µM (inactive) |  |
| CN1C(NCCO)=NS(=O)(=O)c2ccccc21 | > 100 µM (inactive) | > 100 µM (inactive) | > 100 µM (inactive) |  | > 100 µM (inactive) | > 100 µM (inactive) | > 100 µM (inactive) | > 100 µM (inactive) | > 100 µM (inactive) | > 100 µM | > 100 µM (inactive) | > 100 µM (inactive) | > 100 µM (inactive) | > 100 µM (inactive) | 8.75 µM (inactive) | > 100 µM (inactive) | > 100 µM (inactive) | > 100 µM (inactive) | > 100 µM (inactive) |
| Clc1nc(-c2ccccc2)nc(Cl)c1Cl | 17.6 µM (inactive) | 16 µM (inactive) | 2.54 µM (inactive) | 15.7 µM (inactive) | 8.38 µM (inactive) | 12.1 µM (inactive) | 17.1 µM (inactive) | 15.4 µM (inactive) | 17.3 µM (inactive) | 7.38 µM | 15 µM (inactive) | 15.8 µM (inactive) | 3.1 µM (inactive) | 11.6 µM (inactive) | 2.69 µM (inactive) | 11.6 µM (inactive) | 16.8 µM (inactive) | 5.6 µM (inactive) |  |
| CC(C)(C)c1ccc(-c2nc3ccc(Cl)cc3c(=O)o2)cc1 | 23.4 µM (inactive) | 20.5 µM (inactive) | 14.8 µM (inactive) | 26.8 µM (inactive) | 7.78 µM (inactive) |  | 14.5 µM (inactive) | 11.9 µM (inactive) | 13 µM (inactive) | 13.9 µM | 30.5 µM (inactive) | 25.1 µM (inactive) | 16.9 µM (inactive) | 5.12 µM (inactive) | 16.4 µM (inactive) | 22 µM (inactive) | 21.3 µM (inactive) | 15.6 µM (inactive) | 18.5 µM (inactive) |
| CC(=O)n1cc(OP(=O)(Oc2ccccc2)Oc2ccccc2)c2ccccc21 | 54 µM (inactive) | 29.6 µM (inactive) | 22.9 µM (inactive) |  | 24.2 µM (inactive) | 27.7 µM (inactive) | 58.9 µM (inactive) | 32.4 µM (inactive) | 38.9 µM (inactive) | 29 µM | 40.8 µM (inactive) |  | 16.9 µM (inactive) | 35.6 µM (inactive) | 10.9 µM (inactive) | 19.7 µM (inactive) | 29.3 µM (inactive) | 21.4 µM (inactive) | 22.2 µM (inactive) |
| COc1ccc(OC)c(CC(=O)c2ccc(O)c(C(=O)NCCc3ccc(F)cc3)c2)c1 | 12.2 µM (inactive) | 4.06 µM (inactive) |  | 2.55 µM (inactive) | 1.43 µM (inactive) |  | 3.79 µM (inactive) | 4.49 µM (inactive) | 2.82 µM (inactive) | 2.3 µM | 3.1 µM (inactive) | 7.36 µM (inactive) | 5.04 µM (inactive) | 3.42 µM (inactive) | 0.502 µM (active) | 4.13 µM (inactive) | 6.41 µM (inactive) |  | 2.96 µM (inactive) |
| CCOC(=O)C1CCC(=O)N1C(=O)c1ccccc1 (configuration not stated) | > 100 µM (inactive) |  | > 100 µM (inactive) |  | > 100 µM (inactive) | > 100 µM (inactive) | > 100 µM (inactive) | > 100 µM (inactive) | > 100 µM (inactive) | > 100 µM | > 100 µM (inactive) | > 100 µM (inactive) | > 100 µM (inactive) | > 100 µM (inactive) | > 100 µM (inactive) | > 100 µM (inactive) | > 100 µM (inactive) | > 100 µM (inactive) |  |
| Cc1ccc(C(=O)/C=C2\Nc3ccccc3SC2=O)c(C)c1 | > 100 µM (inactive) | 26.5 µM (inactive) | 36.3 µM (inactive) |  | 34.1 µM (inactive) | 30.7 µM (inactive) | 45.3 µM (inactive) | 53.3 µM (inactive) | 46.5 µM (inactive) | 20.8 µM | 32.6 µM (inactive) | > 100 µM (inactive) | 37.7 µM (inactive) | 46.8 µM (inactive) | 28.3 µM (inactive) | 25.1 µM (inactive) | 51.1 µM (inactive) | 38 µM (inactive) | 42.1 µM (inactive) |
| Cn1c(=O)c(Br)c(C=O)n(CCO[N+](=O)[O-])c1=O | 18.2 µM (inactive) |  | 1.62 µM (inactive) | 12.2 µM (inactive) |  | 51.3 µM (inactive) | 26.2 µM (inactive) | 16.1 µM (inactive) |  | 4.83 µM | 31 µM (inactive) | 3.88 µM (inactive) | 1.87 µM (inactive) |  | 2.16 µM (inactive) | 4.28 µM (inactive) | 2.07 µM (inactive) | 3.78 µM (inactive) | 3.59 µM (inactive) |
| CCc1nn(CN2CCN(C)CC2)c(=S)n1/N=C\c1ccc(-c2ccc([N+](=O)[O-])cc2)o1 | 26 µM (inactive) | 44 µM (inactive) | 22.5 µM (inactive) |  | 30.6 µM (inactive) | 22.7 µM (inactive) | 33.7 µM (inactive) | 36.2 µM (inactive) | 40.7 µM (inactive) | 61.9 µM | 56.9 µM (inactive) | > 100 µM (inactive) | 34.7 µM (inactive) | > 100 µM (inactive) | 64.1 µM (inactive) | 37.8 µM (inactive) |  | 58.5 µM (inactive) | 74.3 µM (inactive) |
| COc1ccc(NC(=O)C2=C(SC)C(C#N)C(=O)N=C2N)cc1 (configuration not stated) | > 100 µM (inactive) | > 100 µM (inactive) | 25.7 µM (inactive) |  | > 100 µM (inactive) | > 100 µM (inactive) | > 100 µM (inactive) | > 100 µM (inactive) | > 100 µM (inactive) | > 100 µM | 89.1 µM (inactive) | > 100 µM (inactive) | 55.3 µM (inactive) | 0.369 µM (active) | > 100 µM (inactive) | > 100 µM (inactive) | > 100 µM (inactive) | > 100 µM (inactive) | > 100 µM (inactive) |
| Cc1cccc2c(N)c3cccc(C(=O)NCCNCCN)c3nc12 | 23.7 µM (inactive) | 2.67 µM (inactive) | 0.448 µM (active) | 0.631 µM (active) | 21.9 µM (inactive) |  | 1.16 µM (inactive) | 0.203 µM (active) | 3.68 µM (inactive) | 12.4 µM | 1.24 µM (inactive) | 22.8 µM (inactive) | 0.0649 µM (active) | 3.89 µM (inactive) | 8.09 µM (inactive) | 0.0698 µM (active) | 15.8 µM (inactive) | 2.52 µM (inactive) | 13 µM (inactive) |
| N#Cc1sc2c(c1OC(=O)c1ccc(Cl)cc1Cl)c(=O)n(-c1ccccc1)c(=S)n2-c1ccccc1 | 24.9 µM (inactive) | 21.5 µM (inactive) | 4.85 µM (inactive) | 20.8 µM (inactive) | 19.2 µM (inactive) | 23.8 µM (inactive) | 19.8 µM (inactive) | 30.5 µM (inactive) | 28.2 µM (inactive) | 21.5 µM | 36.7 µM (inactive) | 50.7 µM (inactive) | 18.7 µM (inactive) | 24 µM (inactive) | > 100 µM (inactive) | 29.4 µM (inactive) | > 100 µM (inactive) | 13.4 µM (inactive) |  |
| OCc1ccc2c(c1)CC1(Cc3ccccc3C1)C2 | 26.7 µM (inactive) | 34 µM (inactive) | 4.39 µM (inactive) | 13.5 µM (inactive) | 23 µM (inactive) | 28.1 µM (inactive) |  | 20.6 µM (inactive) | 18.1 µM (inactive) | 25.8 µM | 15.8 µM (inactive) |  | > 10 µM (inactive) | 14.4 µM (inactive) | 22.3 µM (inactive) | 18.1 µM (inactive) | 19.3 µM (inactive) | 14.3 µM (inactive) |  |
| Cc1ccsc1C(=O)C(CC(=O)c1cccs1)c1ccsc1 (configuration not stated) | > 100 µM (inactive) | > 100 µM (inactive) | > 100 µM (inactive) | > 100 µM (inactive) | > 100 µM (inactive) | > 100 µM (inactive) | > 100 µM (inactive) | > 100 µM (inactive) | > 100 µM (inactive) | > 100 µM | > 100 µM (inactive) | > 100 µM (inactive) | 77.3 µM (inactive) | > 100 µM (inactive) | 62.8 µM (inactive) | > 100 µM (inactive) | > 100 µM (inactive) | 16.1 µM (inactive) |  |
| Cc1nc(-n2[nH]c(C)c(CCO)c2=O)[nH]c(=O)c1CCO | 93.1 µM (inactive) | > 100 µM (inactive) | > 100 µM (inactive) | > 100 µM (inactive) | > 100 µM (inactive) | > 100 µM (inactive) | > 100 µM (inactive) | > 100 µM (inactive) | > 100 µM (inactive) | > 100 µM | > 100 µM (inactive) | > 10 µM (inactive) | > 100 µM (inactive) | > 100 µM (inactive) | > 100 µM (inactive) | > 100 µM (inactive) | > 100 µM (inactive) | > 100 µM (inactive) |  |
